Laboratory results taken from patent US10988449B2, “Isoxazole derivatives as nuclear receptor agonists and uses thereof” (IL DONG PHARMACEUTICAL CO., LTD., priority 2017, dated 2021).
Read-outs that look alike come from different tables or passages of the source.

Columns and labels:
[1] = system: hepatic stellate cells (HSC); conditions: cultured HSCs; cited from earlier work
[2] = multiple rodent models; cited from earlier work
[3] = in vivo; cited from earlier work
[4] = biological target: T1, human FXR (Homo sapiens, UniProt Q96RI1); test: FXR reporter assay (cellular FXR activities); format: cell-based; conditions: for EC50: FXR reporter cells, 24 hours incubation, luciferase, read-out: Reporter Cell EC50; for Emax: read-out: Emax (%) (GW4064 Emax = 100%)
T1 construct: expressed in transfected cells
T1 sequence (Q96RI1 1-486): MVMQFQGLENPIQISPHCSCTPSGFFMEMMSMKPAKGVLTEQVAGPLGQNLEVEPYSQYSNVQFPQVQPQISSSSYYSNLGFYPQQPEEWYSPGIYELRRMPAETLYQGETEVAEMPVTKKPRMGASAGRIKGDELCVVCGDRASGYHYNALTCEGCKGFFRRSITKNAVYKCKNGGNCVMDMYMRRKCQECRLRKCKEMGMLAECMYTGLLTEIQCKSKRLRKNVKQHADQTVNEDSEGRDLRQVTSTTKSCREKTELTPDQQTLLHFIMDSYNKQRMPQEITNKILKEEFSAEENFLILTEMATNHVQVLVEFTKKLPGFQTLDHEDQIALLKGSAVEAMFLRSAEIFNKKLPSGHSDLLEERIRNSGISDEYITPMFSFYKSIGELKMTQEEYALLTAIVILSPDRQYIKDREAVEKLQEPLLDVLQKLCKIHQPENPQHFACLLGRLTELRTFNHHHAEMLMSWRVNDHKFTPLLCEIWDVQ
Method in brief: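 Reporter cells overexpressing human FXR exposed to compound dilutions for 24 h at 37 °C, 5% CO2. Luciferase signal used to calculate EC50.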

[5] = Mouse pharmacokinetics; format: in vivo; parameters: concentration or dose not given beside the values; conditions: Balb/c male mice, blood samples 15 to 1140 min, LC-MS/MS
Protocol: To evaluate the pharmacokinetics test, the invented 18 compounds of examples were determined as follows. Blood samples are collected at 15, 30, 60, 120, 240, 480, 1140 min. Quantification is by using a LC-MS/MS method specific to the selected compound. Pharmacokinetics parameters are calculated using WinNonLinnon compartmental analysis software.

[6] = db/db, ob/ob and KK-A(y)mice; cited from earlier work

EC50 [4] | Emax [4] | AUC ([5]; mouse, read-out: AUC) | SMILES | other results
 |  |  | CC[C@H]1[C@@H](O)[C@@H]2[C@H](CC[C@]3(C)[C@@H]([C@H](C)CCC(=O)O)CC[C@@H]23)[C@@]2(C)CC[C@@H](O)C[C@@H]12 [Compound 6EtCDCA, 6-ethyl-chenodeoxycholic acid] | expression of fibrotic markers such as α-smooth muscle actin and α1(I) collagen [1]: decreased expression of fibrotic markers; hepatic fibrosis [2]: promote resolution of hepatic fibrosis; impairment of bile flow [3]: fully reverse the impairment of bile flow; liver cell injury caused by the cytotoxic lithocholic acid [3]: protect the hepatocytes against liver cell injury
60 to 200 nM | 91% | 1780 ng·h/mL | O=C(O)c1ccc(Cl)c(C#Cc2ccc(OCc3c(-c4c(Cl)cccc4Cl)noc3C3CC3)cc2Cl)c1 [Compound I-28, 4-chloro-3-((2-chloro-4-((5-cyclopropyl-3-(2,6-dichlorophenyl)isoxazol-4-yl)methoxy)phenyl)ethynyl)benzoic acid] | 
20 to 60 nM | 92% | 680 ng·h/mL | O=C(O)c1cc(F)cc(C#Cc2ccc(OCc3c(-c4c(Cl)cccc4Cl)noc3C3CC3)cc2Cl)c1 [Compound I-30, 3-((2-chloro-4-((5-cyclopropyl-3-(2,6-dichlorophenyl)isoxazol-4-yl)methoxy)phenyl)ethynyl)-5-fluorobenzoic acid] | 
60 to 200 nM | 92% | 1000 ng·h/mL | O=C(O)c1ccc(F)c(C#Cc2ccc(OCc3c(-c4c(Cl)cccc4Cl)noc3C3CC3)cc2Cl)c1 [Compound I-38, 3-((2-chloro-4-((5-cyclopropyl-3-(2,6-dichlorophenyl)isoxazol-4-yl)methoxy)phenyl)ethynyl)-4-fluorobenzoic acid] | 
20 to 60 nM | > 100% | 3310 ng·h/mL | CNc1cc(C#Cc2ccc(OCc3c(-c4c(Cl)cccc4Cl)noc3C3CC3)cc2Cl)cc(C(=O)O)c1 [Compound I-52, 3-((2-chloro-4-((5-cyclopropyl-3-(2,6-dichlorophenyl)isoxazol-4-yl)methoxy)phenyl)ethynyl)-5-(methylamino)benzoic acid] | 
≤ 20 nM | > 100% | 934 ng·h/mL | CC(C)Nc1cc(C#Cc2ccc(OCc3c(-c4c(Cl)cccc4Cl)noc3C3CC3)cc2Cl)cc(C(=O)O)c1 [Compound I-54, 3-((2-chloro-4-((5-cyclopropyl-3-(2,6-dichlorophenyl)isoxazol-4-yl)methoxy)phenyl)ethynyl)-5-(isopropylamino)benzoic acid] | 
60 to 200 nM | 78% | 11900 ng·h/mL | Cc1cc(C#Cc2ccc(OCc3c(-c4c(Cl)cccc4Cl)noc3C3CC3)cc2Cl)cc(C(=O)O)c1 [Compound I-63, 3-((2-chloro-4-((5-cyclopropyl-3-(2,6-dichlorophenyl)isoxazol-4-yl)methoxy)phenyl)ethynyl)-5-methylbenzoic acid] | 
20 to 60 nM | 88% | 271 ng·h/mL | O=C(O)c1cc(C#Cc2ccc(OCc3c(-c4c(Cl)cccc4Cl)noc3C3CC3)cc2Cl)c2cn[nH]c2c1 [Compound I-89, 4-((2-chloro-((5-cyclopropyl-3-(2,6-dichlorophenyl)isoxazol-4-yl)methoxy)phenyl)ethynyl)-1H-indazole-6-carboxylic acid] | 
≤ 20 nM | > 100% | 544 ng·h/mL | O=C(O)c1cc(C#Cc2ccc(OCc3c(-c4c(Cl)cccc4Cl)noc3C3CC3)cc2Cl)c2cc[nH]c2c1 [Compound I-91, 4-((2-chloro-4-((5-cyclopropyl-3-(2,6-dichlorophenyl)isoxazol-4-yl)methoxy)phenyl)ethynyl)-1H-indole-6-carboxylic acid] | 
60 to 200 nM | 86% | 205 ng·h/mL | O=C(O)c1cc(C#Cc2ccc(OCc3c(-c4c(Cl)cccc4Cl)noc3C3CC3)cc2Cl)cc2[nH]ncc12 [Compound I-99, 6-((2-chloro-4-((5-cyclopropyl-3-(2,6-dichlorophenyl)isoxazol-4-yl)methoxy)phenyl)ethynyl)-1H-indazole-4-carboxylic acid] | 
20 to 60 nM | 96% | 2250 ng·h/mL | CC(C)c1nc2cc(C#Cc3ccc(OCc4c(-c5c(Cl)cccc5Cl)noc4C4CC4)cc3Cl)cc(C(=O)O)c2o1 [Compound I-106, 5-((2-chloro-4-((5-cyclopropyl-3-(2,6-dichlorophenyl)isoxazol-4-yl)methoxy)phenyl)ethynyl)-2-isopropylbenzo[d]oxazole-7-carboxylic acid] | 
 |  |  | CC(C)c1onc(-c2c(Cl)cccc2Cl)c1COc1ccc(/C=C/c2cccc(C(=O)O)c2)c(Cl)c1 [WO2000037077 GW4064] | insulin sensitivity [6]: improved insulin sensitivity; plasma glucose levels [6]: reduced plasma glucose levels; AUC [5]: 253.31 ng·h/mL

SMILES | EC50 [4] | Emax [4] | AUC ([5]; mouse, read-out: AUC) | other results
CC(C)(C)OC(=O)Nc1cc(C#Cc2ccc(OCc3c(-c4c(Cl)cccc4Cl)noc3C3CC3)cc2Cl)cc(C(=O)O)c1 [Compound I-77, 3-((tert-butoxycarbonyl)amino)-5-((2-chloro-4-((5-cyclopropyl-3-(2,6-dichlorophenyl)isoxazol-4-yl)methoxy)phenyl)ethynyl)benzoic acid] | ≤ 20 nM | 100% | 1010 ng·h/mL | 
